Assay results taken from PubChem BioAssay (NCI).
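Assay format: 96-well plates, 48-hour exposure. TGI is the concentration that stops growth completely.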

What was measured:
Experiment in all cases: NCI tumour cell line growth inhibition, 48 h
[1] = system: 786-0 renal
[2] = system: A498 renal
[3] = system: ACHN renal
[4] = system: BT-549 breast
[5] = system: CAKI-1 renal
[6] = system: CCRF-CEM leukemia
[7] = system: COLO 205 colon
[8] = system: DU-145 prostate
[9] = system: EKVX NSCLC
[10] = system: HCT-116 colon
[11] = system: HCT-15 colon
[12] = system: HL-60(TB) leukemia
[13] = system: HOP-62 NSCLC
[14] = system: HS 578T breast
[15] = system: IGROV1 ovarian
[16] = system: K-562 leukemia
[17] = system: KM12 colon
[18] = system: LOX IMVI melanoma
[19] = system: M14 melanoma
[20] = system: MALME-3M melanoma
[21] = system: MCF7 breast
[22] = system: MDA-MB-231 breast
[23] = system: MDA-MB-435
[24] = system: MDA-N
[25] = system: MOLT-4 leukemia
[26] = system: NCI-H226 lung
[27] = system: NCI-H23 lung
[28] = system: NCI/ADR-RES ovarian
[29] = system: OVCAR-3 ovarian
[30] = system: OVCAR-5 ovarian
[31] = system: OVCAR-8 ovarian
[32] = system: PC-3 prostate
[33] = system: RPMI-8226 leukemia
[34] = system: RXF 393 renal
[35] = system: SF-268 CNS
[36] = system: SF-295 CNS
[37] = system: SF-539 CNS
[38] = system: SK-MEL-2 melanoma
[39] = system: SK-MEL-5 melanoma
[40] = system: SK-OV-3 ovarian
[41] = system: SN12C renal
[42] = system: SNB-19 CNS
[43] = system: SNB-75 CNS
[44] = system: SR leukemia
[45] = system: SW-620 colon
[46] = system: T-47D breast
[47] = system: TK-10 renal
[48] = system: U251 CNS
[49] = system: UACC-257 melanoma
[50] = system: UACC-62 melanoma
[51] = system: UO-31 renal

In the case of `CNC(=O)C1OC(n2cnc3c(NCc4cccc(I)c4)nc(Cl)nc32)C(O)C1O` (stereo unspecified), the TGI [1] is reported as 46.8 µM, the TGI [2] is reported as 33.7 µM and the TGI [3] is reported as 24 µM. The TGI [4] was 28.5 µM, the TGI [5] was 40.7 µM and the TGI [6] was 76.6 µM. For the same compound, the TGI [7] was 82.6 µM, the TGI [8] was 50.4 µM and the TGI [9] was 31.5 µM. For the same compound, the TGI [10] was 41.7 µM, the TGI [11] was 20.4 µM and the TGI [12] was over 100 µM. It also gave a TGI [13] of 25.2 µM, a TGI [14] of 18.7 µM and a TGI [15] of 27.2 µM. For the same compound, the TGI [16] was over 100 µM, the TGI [17] was 24.3 µM and the TGI [18] was 27.2 µM. The TGI [19] was 21.9 µM, the TGI [20] was 19.6 µM and the TGI [21] was 25.4 µM. It also gave a TGI [22] of 66.6 µM, a TGI [23] of 27 µM and a TGI [24] of 55.4 µM. For the same compound, the TGI [25] was 53.3 µM, the TGI [26] was 23 µM and the TGI [27] was 25.5 µM. It also gave a TGI [28] of 24 µM, a TGI [29] of 25.7 µM and a TGI [30] of 27 µM. The TGI [31] was 26.7 µM, the TGI [32] was 24.1 µM and the TGI [33] was over 100 µM. It also gave a TGI [34] of 29.6 µM, a TGI [35] of 23.5 µM and a TGI [36] of 40.4 µM. It also gave a TGI [37] of 23 µM, a TGI [38] of 27.8 µM and a TGI [39] of 42.2 µM. It also gave a TGI [40] of 35 µM, a TGI [41] of 41 µM and a TGI [42] of 24.9 µM. It also gave a TGI [43] of 16.5 µM, a TGI [44] of 59.6 µM and a TGI [45] of 51.6 µM. It also gave a TGI [46] of 61.8 µM, a TGI [47] of 29.8 µM and a TGI [48] of 40.4 µM. The TGI [49] was 23.8 µM, the TGI [50] was 24 µM and the TGI [51] was 24.6 µM.
